Assay results reported in US20100203156A1, “XENON AS A TREATMENT FOR HEMOGLOBINOPATHY” (priority 2009, published 2010).

Key:
HbS = HbS (Homo sapiens, UniProt P68871+P69905, E7V); settings: cited from earlier work
[1] = test system: spinal dorsal horn neurons; settings: cited from earlier work; for nociception depending on age: various ages / the young
hemoglobin [2] = target: T1, hemoglobin (Homo sapiens, UniProt P68871+P69905); assay: association rates of gases for hemoglobin; format: binding
[3] = with oxygen, human adults; cited from earlier work
[4] = inhaled xenon; cited from earlier work
[5] = cited from earlier work
hemoglobin [6] = target: T1, hemoglobin; settings: cited from earlier work

SMILES: CC [ethane]
- effect on HbS aggregation (HbS): prevent and reverse HbS aggregation

SMILES: C [methane]
- effect on HbS aggregation (HbS): prevent and reverse HbS aggregation

SMILES: [N-]=[N+]=O [nitrous oxide]
- nociception depending on age [1]: ineffective in the young

SMILES: CCC [propane]
- effect on HbS aggregation (HbS): prevent and reverse HbS aggregation

SMILES: [Xe] [xenon]
- xenon association rate for hemoglobin relative to CO (hemoglobin [2]; versus CO): 10 times faster
- xenon association rate for hemoglobin relative to O2 (hemoglobin [2]; versus O2): 1-2 times faster
- nociceptive responsiveness of spinal dorsal horn neurons ([1]; animal studies): directly inhibited
- nociception depending on age [1]: reduce nociception at various ages
- 1 MAC, inhaled fractional concentration [3]: 0.63-0.73
- inhaled concentration at which nausea and vomiting has been observed [4]: > 30%
- analgesia to cold pain ([5]; human, in vivo): not to cold pain
- analgesia to ischemic, electrical, mechanical, and heat stimulation ([5]; human, in vivo): produced analgesia
- analgesic potency compared with nitrous oxide ([5]; human, in vivo): comparable or superior to nitrous oxide
- response to experimentally induced, standardized forms of pain ([5]; inhaled dose of ~20%, healthy volunteers): significantly decrease the response
- xenon in blood carried by hemoglobin (hemoglobin [6]; during xenon inhalation, estimated): 45%
- amount of xenon bound by reduced and oxyhemoglobin (hemoglobin [6]; reduced versus oxyhemoglobin): approximately the same
